# What was measured:
# [1] = SOD activity, xanthine oxidase/cytochrome c method; format: biochemical; conditions: for kcat, O2^− dismutation: competition with 10 μM cytochrome c, pH 7.8, 25° C.
# Description: FIG. 12. […] The v0 is the rate of reduction of 10 μM cytochrome c by O2. The vi is the rate of reduction of cytochome c inhibited by the porphyrin catalyst in the presence of 0.1 mM EDTA in 0.05 M tris buffer at pH 7.8. 40 μM xanthine. ˜2 nM xanthine oxidase at 25° C. The total volume of the assay solution is 3 mL.
# SOD Activity. Catalysis of the dismutating of O2 in vitro was followed by the xanthine oxidase/cytochrome c method (McCord et al, J. Biol. Chem. 244:6049 (1969)).
# Dismutation of superoxide anion, O2^−. Assays were conducted in 0.05 M aqueous phosphate buffer, pH 7.8, 0.1 mM EDTA, ±15 μg/mL of catalase, ±albumin. Rate constants for the reaction with O2^−were based upon the competition of the compounds with cytochrome c.
# Two metallotetrapyrroles were tested for antioxidant activity, in vitro. In particular, the compounds were assayed for their ability to dismutate superoxide in the indirect method that utilizes xanthine and xanthine oxidase to generate superoxide and cytochrome c reduction as indicator of superoxide flux. […] The compounds were also assayed for their ability to prevent lipid peroxidation of rat brain homogenates by iron and ascorbate. The mixture of iron and ascorbate generates reactive oxygen species that oxidize biological lipids and these oxidized lipids can be detected as species that react with thiobarbituric acid (TBARS).
# a) SOD activity determined using a xanthine oxidase/cytochrome c assay
# [2] = system: SOD-deficient E. coli JI132; test: Aerobic growth of SOD-deficient E. coli in minimal medium; format: cell-based
# Description: FIG. 13. […] The 20 mM ethanolic/albumin solution of compound was diluted into the medium. Also the growth of SOD-deficient E. coli was followed in the presence of 0.15% ethanol only (squares).
# SOD activity can be monitored in the presence and absence of EDTA using the method of McCord and Fridovich (J. Biol. Chem. 244:6049 (1969)). The efficacy of a mimetic can also be determined by measuring the effect of the mimetic on the aerobic growth of a SOD null E. coli strain versus a parent strain. Specifically, parental E. coli (AB1157) and SOD null E. coli. […]
# Effects on E. coli. E. coli strains AB1157 (SOD-proficient, wild type) and JI132 (SOD-deficient, sodAsodB) were obtained from J. A. Imlay (Imlay et al, J. Bacteriol. 169:2967 (1987)). […] Cultures were treated as previously described (Faulkner et al, J. Biol. Chem. 269:23471 (1994); Benov et al, J. Biol. Chem. 273:10313 (1998)). Due to the low water solubility, the compounds were solubilized with albumin in medium at a 1:1 molar ratio. Albumin itself had no effect on growth in the concentration range employed. Since methanol was toxic to the SOD-deficient strain of E. coli even when present in medium at 0.15%, the stock solutions of the compounds were prepared in ethanol.
# [3] = Cyclic voltammetry, metal-centered redox potential; format: physicochemical; conditions: 90/10 (v/v) methanol/aqueous solution, pH* 7.9
# Description: Manganese(III) Salen. The compound was prepared by the published procedure (Boucher, J. lnorg. Nucl. Chem. 36:531 (1974)). The uv/vis in water: ε235=3.70×10^4 cm^−1 M^−1, ε279=1.70×10^4 cm^−1 M^−1, ε397=4.60×10^3 cm^−M^−1. The elemental analysis: Anal. Calcd for Mn^IIIsalenCl, C16H14N2O2MnCl: C, 53.88; H, 3.96; N; 7.85. Found: C, 54.02; H, 4.06; N, 7.85. […] Based on the E1/2 of Mn^IIITM-2-PyP^5+, ferrocenemethanol and of K3Fe(CN)6 in water and methanol, the redox potential of Mn^III salen^+ in water was calculated to be E1/2=−0.13 V vs NHE.
# Electrochemistry of the Manganese(III) Biliverdin Dimethylester. Measurements were made using a CH Instruments model 600 voltammetric analyzer as described previously(Batinic-Haberle et al, Inorg. Chem. 38:4011 (1999)). A three-electrode system in a small volume (0.5-3.0 mL), with a 3 mm diameter glassy carbon button working electrode (Bioanalytical Systems), Ag/AgCl reference electrode (3 M NaCl, Bioanalytical Systems), and a Pt wire (0.5 mm) as auxiliary electrode, were used. The cyclic votammetry was performed on 0.5 mM (per manganese) methanol/aqueous (90/10, v/v) solutions of the compounds investigated. The ionic strength was kept at 0.10 M (NaCl), and 0.05 M tris buffer was used for pH^* adjustment. For calibration purposes, compounds of different hydrophilicities, […], (Kolthof et al, J. Phys. Chem. 39:945 (1935)) ferrocenemethanol and Mn^IIITM-2-PyP^5+ were studied in both aqueous and methanol/aqueous (90/10, v/v) solutions (I=0.10 M NaCl, 0.05 M tris buffer, pH^* 7.9). In all cases the measured E1/2 was 170 mV more positive in methanolic than in aqueous solution and this value was used to predict the redox potential in aqueous solution from measurement in methanol/aqueous solution.
# [4] = Reactivity towards nitric oxide (uv/vis); format: physicochemical; conditions: 14 μM, 90-fold excess NO, 90/10 methanol/PBS, 1 hour
# [5] = Stability in the presence of excess EDTA (uv/vis); format: physicochemical
# Description: (§1) Uv/vis Spectroscopy. […] Also the effects of EDTA, H2O2, and the methanol/water ratio on the stability of the manganese(III) complex were examined. […] […] 79:699 (1960)). When needed the biliverdin and biliverdin dimethylester as well as their reduced forms bilirubin and bilirubin dimethylester were studied. […] In a week, at 25° C., only 14% of the complex dissociated. When the water content was increased to 43%, half the complex dissociated in a week.
# [6] = Hydrolysis / dissociation of the complex in methanol/aqueous or water solution; format: physicochemical
# Description: as §1
substance,measurement,setting,value
Manganese(III) Biliverdin IX Dimethylester [{Mn^IIIBVDME}2],specific activity (SOD mimetic),[1],"10,700 units/mg"
same,effect of albumin on SOD-like activity,[1]; 1:1 albumin to compound ratio,no negative effect of albumin was observed
same,decrease of SOD-like activity in the presence of albumin,[1]; albumin to compound ratio 3,50%
same,SOD specific activity,"[1]; per manganese, 1 unit = quantity (mg) per 3.0 mL causing 50% inhibition of reduction of 10 μM cytochrome c",10700 U/mg
same,"kcat, O2^− dismutation",[1]; per manganese,5.5e+07 M⁻¹ s⁻¹
same,"kcat, O2^− dismutation","[1]; per manganese, listed as compound of FIG. 2C",5.5e+07 M⁻¹ s⁻¹
same,"kcat, O2^− dismutation","[1]; per manganese, listed as ½ {Mn^III/IVBVDME^0/−}2",5.5e+07 M⁻¹ s⁻¹
same,SOD Activity,[1]; xanthine oxidase/cytochrome c assay,"10,700 USOD/mg"
same,growth of SOD-deficient E. coli,"[2]; 13 μM, after 15 hours, SOD-proficient 100%, SOD-deficient without compound 16%",50%
same,growth of SOD-deficient E. coli (in words),[2]; 0.1 to 13 μM in minimal medium,markedly improved
same,effect on SOD-deficient E. coli growing under aerobic conditions (in words),[2]; minimal (five amino acids) medium,significant protection
same,"E1/2, V vs Ag/AgCl",[3]; Mn(III)/Mn(II) couple,−0.32 V vs Ag/AgCl
same,"E1/2, V vs Ag/AgCl",[3]; Mn(III)/Mn(IV) couple,+0.36 V vs Ag/AgCl
same,"E1/2, V vs Ag/AgCl","[3]; Mn(III)/Mn(IV) couple, listed as ½ {Mn^III/IVBVDME^0/−}2",−0.36 V vs Ag/AgCl
same,reactivity towards NO (change of spectrum),[4],No change in the spectrum
same,reactivity towards NO (change of spectrum),[4]; listed as compound of FIG. 2C,No reactivity towards NO has been detected
same,stability in the presence of EDTA,"[5]; 1 μM, 900-fold excess EDTA (0.9 mM), 2-4 hours, 25° C., methanol/aqueous (90/10), 0.05 M tris, pH* 7.9",stable
same,stability in the presence of EDTA,"[5]; 20 μM, 900-fold excess of EDTA, pH 7.8",stable
same,fraction of complex dissociated (hydrolysis),"[6]; 90/10 methanol/aqueous, pH* 7.9, one week, 25° C.",14%
same,fraction of complex dissociated (hydrolysis),"[6]; water content 43%, one week",half
